What was measured:
CASOB (Sicklepod) = experiment: Postemergence herbicidal evaluation; assay type: in vivo, Cassia obtusifolia
In short: (§1)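 Visual 0–9 rating versus control (stand, vigor, malformation, size, chlorosis, overall appearance), taken four to five weeks post-spray. Two-week-old seedlings received roughly 0.0156–0.500 kg/ha active in acetone/water (50/50) with 0.5% TWEEN 20 via nozzle at 40 psi.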

[1] = tested on: CHEAL (Lambsquarters, Common); experiment: Postemergence herbicidal evaluation; assay type: in vivo, Chenopodium album
In short: as §1

GALAP (Galium) = experiment: Postemergence herbicidal evaluation; assay type: in vivo, Galium aparine
In short: as §1

ORYSAT (Rice, Tebonnet) = experiment: Postemergence herbicidal evaluation; assay type: in vivo, Oryza sativa, (L.) Tebonnet
In short: as §1

ZEAMX (Corn, Field) = experiment: Postemergence herbicidal evaluation; assay type: in vivo, Zea mays
In short: as §1

CYPSE (Flatsedge) [2] = experiment: Preemergence weed control under flooded paddy conditions; assay type: in vivo, Cyperus serotinus; details: rated 3-4 weeks after treatment
In short: (§2)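 Values are visual 0-9 scores against a control for a preemergence application into paddy flood water at about 0.0313 to 0.500 kg/ha. Greenhouse duration was three to four weeks.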

MOOVA (Monochoria) = experiment: as above; assay type: in vivo, Monochoria vaginalis; details: rated 3-4 weeks after treatment
In short: as §2

CYPIR (Rice Flatsedge) = experiment: Postemergence weed control under flooded paddy conditions; assay type: in vivo, Cyperus iria; details: postemergence weeds, 3-4 weeks after treatment
In short: (§3)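 With weeds 3 to 5 cm tall and rice at the 1.5 to 2.5 leaf stage, containers were flooded and water held 1.5 to 3 cm above soil. Compounds in 50/50 v/v aqueous/acetone went into the flood water at about 0.0313 to 0.500 kg/ha a.i. Effects were visually rated 0–9 against controls after three to four weeks in the greenhouse.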

CYPSE (Flatsedge) [3] = experiment: as above; assay type: in vivo, Cyperus serotinus; details: postemergence weeds, 3-4 weeks after treatment
In short: as §3

[4] = tested on: SAGPY (Arrowhead (Pygmaea)); experiment: as above; assay type: in vivo, Sagittaria pygmaea; details: postemergence weeds, 3-4 weeks after treatment
In short: as §3

2-{{2-Chloro-5-[3,6-dihydro-3-methyl-2,6-dioxo-4-(trifluoromethyl)-1(2H)-pyrimidinyl]-4-fluoro-phenyl}imino}-4-oxo-3,5-thiazolidenediacetic acid, 3-ethyl (2-propynyl) ester, (2:1) mixture with di-2-propynyl ester [Compound 58]
Postemergence herbicidal rating CASOB (CASOB (Sicklepod); Rate 0.0158 kg/ha): 0.0
Postemergence herbicidal rating CASOB (CASOB (Sicklepod); Rate 0.0315 kg/ha): 2.0
Postemergence herbicidal rating CASOB (CASOB (Sicklepod); Rate 0.0630 kg/ha): 3.0
Postemergence herbicidal rating CHEAL ([1]; Rate 0.0158 kg/ha): 9.0
Postemergence herbicidal rating CHEAL ([1]; Rate 0.0315 kg/ha): 9.0
Postemergence herbicidal rating CHEAL ([1]; Rate 0.0630 kg/ha): 9.0
Postemergence herbicidal rating GALAP (GALAP (Galium); Rate 0.0158 kg/ha): 1.0
Postemergence herbicidal rating GALAP (GALAP (Galium); Rate 0.0315 kg/ha): 3.0
Postemergence herbicidal rating GALAP (GALAP (Galium); Rate 0.0630 kg/ha): 9.0
Postemergence herbicidal rating ORYSAT (ORYSAT (Rice, Tebonnet); Rate 0.0158 kg/ha): 5.5
Postemergence herbicidal rating ORYSAT (ORYSAT (Rice, Tebonnet); Rate 0.0315 kg/ha): 5.5
Postemergence herbicidal rating ORYSAT (ORYSAT (Rice, Tebonnet); Rate 0.0630 kg/ha): 6.0
Postemergence herbicidal rating ZEAMX (ZEAMX (Corn, Field); Rate 0.0158 kg/ha): 7.0
Postemergence herbicidal rating ZEAMX (ZEAMX (Corn, Field); Rate 0.0315 kg/ha): 7.0
Postemergence herbicidal rating ZEAMX (ZEAMX (Corn, Field); Rate 0.0630 kg/ha): 8.0
CYPSE herbicidal effect rating (CYPSE (Flatsedge) [2]; 0.0313 kg/ha): 5.0
Herbicidal rating CYPSE (CYPSE (Flatsedge) [2]; 0.0625 kg/ha): 5.0
Herbicidal rating CYPSE (CYPSE (Flatsedge) [2]; 0.1250 kg/ha): 5.0
Herbicidal rating CYPSE (CYPSE (Flatsedge) [2]; 0.2500 kg/ha): 5.0
MOOVA herbicidal effect rating (MOOVA (Monochoria); 0.0313 kg/ha): 0.0
Herbicidal rating MOOVA (MOOVA (Monochoria); 0.0625 kg/ha): 0.0
Herbicidal rating MOOVA (MOOVA (Monochoria); 0.1250 kg/ha): 3.0
Herbicidal rating MOOVA (MOOVA (Monochoria); 0.2500 kg/ha): 9.0
Herbicidal rating CYPIR (CYPIR (Rice Flatsedge); rate 0.0313 kg/ha): 0.0
Herbicidal rating CYPIR (CYPIR (Rice Flatsedge); rate 0.0625 kg/ha): 0.0
Herbicidal rating CYPIR (CYPIR (Rice Flatsedge); rate 0.1250 kg/ha): 2.0
Herbicidal rating CYPIR (CYPIR (Rice Flatsedge); rate 0.2500 kg/ha): 3.0
Herbicidal rating CYPSE (CYPSE (Flatsedge) [3]; rate 0.0313 kg/ha): 5.0
Herbicidal rating CYPSE (CYPSE (Flatsedge) [3]; rate 0.0625 kg/ha): 5.0
Herbicidal rating CYPSE (CYPSE (Flatsedge) [3]; rate 0.1250 kg/ha): 5.0
Herbicidal rating CYPSE (CYPSE (Flatsedge) [3]; rate 0.2500 kg/ha): 5.0
Herbicidal rating SAGPY ([4]; rate 0.0313 kg/ha): 0.0
Herbicidal rating SAGPY ([4]; rate 0.0625 kg/ha): 0.0
Herbicidal rating SAGPY ([4]; rate 0.1250 kg/ha): 0.0
Herbicidal rating SAGPY ([4]; rate 0.2500 kg/ha): 4.0

— US20020137929A1, “1 - (3-heterocyclylphenyl) isothiourea, -isourea, -guanidine and -amidine herbicidal agents” (Intellectual Property Department, BASF Aktiengesellschaft, priority 1998, published 2002)
